In data set [1] the test system is IPANs (intrinsic primary afferent neuron). Particulars: isolated bowel segment, PD mouse model; increasing frequency of propulsive peristaltic contractions; cited from earlier work.
In data set [2] the test system is mouse models of PD. The following applies: orally administered, mice with constipation due to overexpression of human αS (West et al, manuscript in preparation); cited from earlier work.
For data set [3] the following is noted: prior studies; systemic blood levels one thousand-fold greater than oral; cited from earlier work.
Data set [4] is described as follows: Pharmacokinetics of orally administered squalamine (ENT-01), Phase 2 trial. Particulars: for systemic absorption following oral administration: this study, PD patients; for oral bio-availability (estimated): based on pharmacokinetic behavior of intravenously administered squalamine in prior clinical studies. It counts as in vivo, human. The procedure:
PK data were collected on the 10 patients enrolled in Stage 1 and 10 patients enrolled in Stage 2 to determine the extent of systemic absorption. In Stage 1, PK data were obtained at each visit, pre-medication, at 1, 2, 4, 8 and 24 hours (Table 10). In Stage 2, PK was measured on days 1 and 6 of the randomization period pre-medication, at 1, 2, 4 and 8 hours (Table 11).
The mean Cmax, Tmax and T1/2 and AUC of the squalamine ion following squalamine (ENT-01) oral dosing for Stage 1 patients. The PK analyses are only approximate, as the lower limit of the validated concentration range was 10 ng/ml; most of the measured concentrations fell below that value. The mean Cmax, Tmax and T1/2 and AUC of the squalamine ion following squalamine (ENT-01) oral dosing for Stage 2 patients. The PK analyses are only approximate, as the lower limit of the validated concentration range was 0.5 ng/ml.

Data set [5] deals with patients with PD and constipation. In words: CNS symptoms in Stage 2 (UPDRS, MMSE, PDHQ, BDI-II, hallucinations). Type of data set: in vivo, human. Particulars: 6 patients with hallucinations (5) or delusions (1) at baseline. An excerpt:
(8) Beck Depression Inventory (BDI-II);
(9) Unified Parkinson's Disease Rating Scale (UPDRS), which consists of 42 items in four subscales (Part I=Non-Motor Aspects of Experiences of Daily Living (nM-EDL) (1.1 cognitive impairment, 1.2 hallucinations and psychosis, 1.3 depressed mood, Part II=Motor Aspects of Experiences of Daily Living (M-EDL), Part III=Motor Examination, and Part IV=Motor Complications;
(10) Mini Mental State Examination (MMSE);
(12) The University of Miami Parkinson's Disease Hallucinations Questionnaire (UM-PDHQ); […]
Assessments were made at baseline and at the end of the fixed dose and washout periods. Circadian system status was evaluated by continuously monitoring wrist skin temperature (Thermochron iButton DS1921H; Maxim, Dallas) following published procedures (Sarabia et al. 2008). […]

For data set [6] the following is noted: dogs, prior studies; cited from earlier work.
The subject of data set [7] is patients with PD and constipation. Put plainly: Effect on bowel function, Phase 2 trial (Stage 1 single dose, Stage 2 daily dosing). Type of data set: in vivo, human. The protocol: Overview: The subjects of the trial all had PD and experienced constipation, which is a characteristic of PD. The primary objectives of the trial involving patients with PD and constipation were to evaluate the safety and pharmacokinetics of oral squalamine (ENT-01) and to identify the dose required to improve bowel function, which was used as a clinical endpoint.
ENT-01 is the phosphate salt of squalamine. For this study it has been formulated as a small 25 mg coated tablet. Dosing ranged from 25 mg to 250 mg, with dosages greater than 25 mg requiring multiple pills (e.g., 50 mg=two 25 mg pills). Dosing instructions=take 60 mins before breakfast with 8 oz. water. The dose was taken by each patient upon awakening on an empty stomach along with 8 oz. of water simultaneously to dopamine. The subject was not allowed to ingest any food for at least 60 minutes after study medication. The compound is highly charged and will adsorb to foodstuffs, so it was administered prior to feeding.
Following successful screening, all subjects underwent a 14-day run-in period where the degree of constipation was assessed through a validated daily log (Zinsmeister et al. 2013) establishing baseline CSBMs/week. Subjects with an average of <3 CSBMs/week proceeded to dosing.
(§1) Tolerability limits included diarrhea or vomiting.
(§2) In Stage 2, 34 patients were evaluated.
The primary efficacy outcome variable was whether or not a subject was a “success” or “failure”. This is an endpoint based on subject diary entries for the “fixed dose” period prior to the endpoint assessment defined as average complete stool frequency increase by 1 or more over baseline, or 3 or more complete spontaneous stools/week. The subject was deemed a “success” if s/he met one or more of the criteria listed above, otherwise the subject was deemed a “failure”. The primary analysis was based on all subjects with a baseline assessment and an assessment at the end of the “fixed-dose” period and was a comparison of the proportion of successes with 0.10 (the null hypothesis corresponding to no treatment effect).

The test system is the same in data set [8]. Put plainly: Sleep diary (total sleep time, REM-behavior disorder). Type of data set: in vivo, human. Particulars: beyond 125 mg. The protocol:
FIG. 3 is a chart of total sleep time in relation to squalamine dose. Total sleep time was obtained from the sleep diary by subtracting awake time during the night from total time spent in bed. Total sleep time per night was logged for each patient at baseline, each dosing period and at washout, and the means were determined. The light grey bar represents the baseline value for each cohort at a given dose level and the dark grey bar represents the value for the same cohort at the stated dose of squalamine (ENT-01). The number of patients represented at each value are: Baseline, 33; 75 mg, 21; 100 mg, 28; 125 mg, 18; 150 mg, 15; 175 mg, 12; 200 mg, 7; 225 mg, 3; 250 mg, 2; washout, 33. P values were as follows: 75 mg, p=0.4; 100 mg, p=0.1; 125 mg, p=0.3; 150 mg, p=0.07; 175 mg, p=0.03; 200 mg, p=0.3; 225 mg, p=0.5; 250 mg, p=0.3; wash-out, p=0.04 (paired t test).
(5) Sleep Diary (participants completed a sleep diary on a daily basis throughout the study. The diaries included time into bed and estimated time to sleep as well as wake time and duration during the night); […]

Data set [9] has the same test system. Put plainly: Circadian rhythm of wrist skin temperature. Particulars: for effect on circadian rhythm of skin temperature: oral administration, 12 patients with evaluable data. It counts as in vivo, human. The protocol:
(6) I-Button Temperature Assessment. The I-Button is a small, rugged self-sufficient system that measures temperature and records the results in a protected memory section. The Thermochron I-Button DS1921H (Maxim Integrated, Dallas, Tex.) was used for skin temperature measurement. I-Buttons were programmed to sample every 10 mins., and attached to a double-sided cotton sport wrist band using Velcro, with the sensor face of the I-Button placed over the inside of the wrist, on the radial artery of the dominant hand. Subjects removed and replaced the data logger when necessary (i.e., to have a bath or shower). The value of skin temperature assessment in sleep research is that the endogenous skin warming resulting from increased skin blood flow is functionally linked to sleep propensity. From the collected data, the mesor, amplitude, acrophase (time of peak temperature), Rayleight test (an index of interdaily stability), mean waveforms are calculated);
Assessments were made at baseline and at the end of the fixed dose and washout periods. Circadian system status was evaluated by continuously monitoring wrist skin temperature (Thermochron iButton DS1921H; Maxim, Dallas) following published procedures (Sarabia et al. 2008).
Circadian rhythm of skin temperature was evaluable in 12 patients (i.e., those who had recordings that extended from baseline through washout). Circadian system functionality was evaluated by continuously monitoring wrist skin temperature using a temperature sensor (Thermochron iButton DS1921H; Maxim, Dallas, Tex.) (Sarabia et al. 2008). A nonparametric analysis was performed for each participant to characterize DST as previously described (Sarabia et al. 2008; Ortiz-Tudela et al. 2010).
Briefly, this analysis includes the following parameters: (i) the inter-daily stability (the constancy of 24-hour rhythmic pattern over days, IS); (ii) intra-daily variability (rhythm fragmentation, IV); (iii) average of 10-minute intervals for the 10 hours with the minimum temperature (L10); (iv) average of 10-minute intervals for the 5 hours with the maximum temperature (M5) and the relative amplitude (RA), which was determined by the difference between M5 and L10, divided by the sum of both. Finally, the Circadian Function Index (CFI) was calculated by integrating IS, IV, and RA. Consequently, CFI is a global measure that oscillates between 0 for the absence of circadian rhythmicity and 1 for a robust circadian rhythm (Ortiz-Tudela et al. 2010).

For data set [10] the following is noted: rats, prior studies; cited from earlier work.
Data set [11] concerns patients with PD and constipation. In words: Safety and adverse event profile, Phase 2 trial. It counts as in vivo, human. The protocol: as §1, §2
The conditions of data set [12]: mice, prior studies; cited from earlier work.
The mark [13] stands for this setting: Stage 2, fixed dose, n = 34, weekly average.
Where [14] appears, read: Stage 2, fixed dose, n = 34, weekly average, listed as aminosterol.

Structures are written as SMILES. Values joined by “and” are separate entries in the source; they are usually repeats but may differ in a detail not shown here. Identical values can stand only once. “Also recorded” adds a separate entry of the source. Like-named read-outs stand apart in the source and are kept apart here.

As to `CC(C)[C@@H](CC[C@@H](C)[C@H]1CC[C@H]2[C@@H]3[C@H](O)C[C@H]4C[C@@H](NCCCNCCCCN)CC[C@]4(C)[C@H]3CC[C@]12C)OS(=O)(=O)O` [squalamine], the “effect on IPANs of the ENS” value in data set [1] is listed as “excitation of IPANs”. Besides, the gastro-intestinal motility entry in [2] is “stimulates gastro-intestinal motility”. Besides, the “gastrointestinal motility after intravenous administration” value in data set [3] is “not associated with increased gastrointestinal motility”. The “systemic absorption following oral administration” value in data set [4] is reported as “not significantly absorbed into the systemic circulation”.
Consider `CC(C)[C@@H](CC[C@@H](C)[C@H]1CC[C@H]2[C@@H]3[C@H](O)C[C@H]4C[C@@H](NCCCNCCCCN)CC[C@]4(C)[C@H]3CC[C@]12C)OS(=O)(=O)O` (single isomer, unassigned) [squalamine (ENT-01), squalamine], for which the “patients in whom hallucinations and delusions improved or disappeared during treatment” value in [5] is “improved or disappeared during treatment in five”. Further, the “patients in whom hallucinations and delusions improved or disappeared during treatment” value in data set [5] (listed as aminosterol) is given as “improved or disappeared during treatment in five”. Also, the “systemic absorption following oral administration” value in data set [6] is “negligible”. Moreover, in [7] (setting [13]), the “CSBM (mean, SD)” value is 3.8 CSBM/week and 3.8 (2.4) CSBM/week; the “Suppository use / rescue medication (mean, SD)” value was 0.3 /week and 0.3 (0.67) /week. In data set [7] (setting [14]), the “CSBM (mean, SD)” value was found to be 3.8 CSBM/week; the “SBM (mean, SD)” value was 4.5; the “Suppository use / rescue medication (mean, SD)” value was 0.3 /week. In addition, in data set [7] (patients with baseline ≥1 CSBM/week), the “prokinetic dose (mean)” value amounted to 120 mg. Also, the “total sleep time vs baseline” value in data set [8] is “consistently higher than baseline”. The “effect on circadian rhythm of skin temperature” value in data set [9] was “significant positive impact; also recorded: improved all markers of healthy circadian function”. Further, the “effect on circadian rhythm of skin temperature” value in data set [9] (listed as Aminosterol) is “improved all markers of healthy circadian function”. Also, in data set [9] (wash-out period, p=0.004), the “improvement of CFI during wash-out” value was “persisted”. Further, in [9] (wash-out period, p=0.008), the “improvement of IS during wash-out” value is recorded as “persisted”. Also, the “oral bio-availability (estimated)” value in data set [4] was “less than 0.3%”. Moreover, in [4] (listed as aminosterol), the “oral bio-availability (estimated)” value was under 0.3% and the “systemic absorption following oral administration” value was “negligible”. Besides, the “systemic absorption following oral administration” value in [10] is reported as “negligible”. Besides, in data set [11] (Stage 2 (34 dosed)), the “Diarrhea, Mild” value was 12 (35)^ n, %; the “Difficulty falling asleep, Mild” value is 1 (3)^ n, %; the “Eye infection, Mild” value is reported as 1 (3)^ n, %; the “Flatulence, Mild” value is given as 1 (3)^ n, %. Further, in data set [11] (Stage 2 (34 dosed)), the “Nausea, Mild” value is 18 (52)^ n, %; the “Urinary retention, Mild” value is on record as 1 (3)^ n, %; the “Urinary tract infection, Mild” value is listed as 1 (3)^ n, %; the “Worsening hemorrhoid, Mild” value is listed as 1 (3)^ n, %. Moreover, the “patients with worsening of hemorrhoids” value in data set [11] (all dosed, 1/44) came to 2.2%. In [11] (all dosed, 2/44), the “patients with worsening of acid reflux” value is given as 4.5%. In addition, in data set [11] (all dosed, 3/44), the patients with flatulence is reported as 6.8% and the patients with vomiting was 6.8%. For the same compound, the patients with dizziness in data set [11] (all dosed, 8/44) is listed as 18%. Moreover, the “patients with abdominal pain” value in data set [11] (all dosed, 11/44) stood at 32%. Also, in [11] (withdrawal period, considered unrelated to study medication), the “Serious adverse event (SAE)” value is listed as “One patient had a lower GI bleed”. Also, the “systemic absorption following oral administration” value in data set [12] is “negligible”.

The values are drawn from patent US11464789B2, “Aminosterol compositions and methods of using the same for treating schizophrenia” (Enterin, Inc., priority 2018, dated 2022).
